Key:
[1] = test system: BxPC3; test: Cell proliferation assay (Alamar Blue), BxPC3; assay type: cell-based; conditions: Homo sapiens, BXPC-3; BxPC3 cell line; read-out: Bx-PC3
Method: (§1) A representative cell-proliferation assay protocol using Alamar Blue dye (stored at 4° C., use 20 ul per well) is described hereafter.
(§2) 96-Well Plate Setup and Compound Treatment
(§3) • a. Split and trypsinize cells. • b. Count cells using hemocytometer. • c. Plate 4,000-5,000 cells per well in 100 μl of medium and seed into a 96-well plate according to the following plate layout. Add cell culture medium only to wells B10 to B12. Wells B1 to B9 have cells but no compound added.
(§4) • d. Add 100 μl of 2× drug dilution to each well in a concentration shown in the plate layout above. At the same time, add 100 μl of media into the control wells (wells B10 to B12). Total volume is 200 μl/well. • e. Incubate four (4) days at 37° C., 5% CO2 in a humidified incubator. • f. Add 20 μl Alamar Blue reagent to each well. • g. Incubate for four (4) hours at 37° C., 5% CO2 in a humidified incubator. • h. Record fluorescence at an excitation wavelength of 544 nm and emission wavelength of 590 nm using a microplate reader.
(§5) In the assays, cells are cultured with a test compound for approximately four days, the dye is then added to the cells and fluorescence of […] dye is detected after approximately four hours. Different types of cells can be utilized in the assays (e.g., HCT-116 human colorectal carcinoma cells, PC-3 human prostatic cancer cells and MiaPaca human pancreatic carcinoma cells).

[2] = test system: Jurkat; test: Cell proliferation assay (Alamar Blue), Jurkat; assay type: cell-based; conditions: Homo sapiens; Jurkat cell line
Method: as §1, §2, §3, §4, §5

[3] = test system: MDA-MB231; test: Cell proliferation assay (Alamar Blue), MDA-MB231; assay type: cell-based; conditions: Homo sapiens, MDA-MB-231; MDA-MB231 cell line
Method: as §1, §2, §3, §4, §5

[4] = test system: MiaPaca human pancreatic carcinoma cells; test: Cell proliferation assay (Alamar Blue), MiaPaCa; assay type: cell-based; conditions: MIA PaCa-2, MiaPaCa cell line
Method: as §1, §2, §3, §4, §5

[5] = test system: HCT-116 human colorectal carcinoma cells; test: Cell proliferation assay (Alamar Blue), HCT-116; assay type: cell-based; conditions: HCT-116 cell line
Method: as §1, §2, §3, §4, §5

[6] = test system: PanC1; test: Cell proliferation assay (Alamar Blue), PanC1; assay type: cell-based; conditions: Homo sapiens, PANC-1; PanC1 cell line
Method: as §1, §2, §3, §4, §5

[7] = molecular target: T1, recombinant human CK2 (Homo sapiens, UniProt P68400); test: Cell-free CK2 assay; assay type: biochemical; conditions: for inhibition at 0.5 µM: read-out: CK2: % inh 500 nM
T1 construct: purchased Upstate
Method: Modulatory activity of compounds described herein is assessed in vitro in cell-free CK2 assays. These assays are described hereafter.
Test compounds in aqueous solution are added at a volume of 10 microliters, to a reaction mixture comprising 10 microliters Assay Dilution Buffer (ADB; 20mM MOPS, pH 7.2, 25 mM beta-glycerolphosphate, 5 mM EGTA, 1 mM sodium orthovanadate and 1 mM dithiothreitol), 10 microliters of substrate peptide (RRRDDDSDDD (SEQ ID NO:4), dissolved in ADB at a concentration of 1 mM), 10 microliters of recombinant human CK2 (25 ng dissolved in ADB; Upstate). Reactions are initiated by the addition of 10 microliters of ATP Solution (90% 75 mM MgC12, 75 micromolar ATP dissolved in ADB; 10% [γ-^33P]ATP (stock 1 mCi/100 μl; 3000 Ci/mmol (Perkin Elmer) and maintained for 10 minutes at 30 degrees C. The reactions are quenched with 100 microliters of 0.75% phosphoric acid, then transferred to and filtered through a phosphocellulose filter plate (Millipore). After washing each well 5 times with 0.75% phosphoric acid, the plate is dried under vacuum for 5 min and, following the addition of 15 ul of scintillation fluid to each well, the residual radioactivity is measured using a Wallac […].

[8] = test system: K562; test: Cell proliferation assay (Alamar Blue), K562; assay type: cell-based; conditions: Homo sapiens; K562 cell line
Method: as §1, §2, §3, §4, §5

[9] = test system: PC-3 human prostatic cancer cells; test: Cell proliferation assay (Alamar Blue), PC3; assay type: cell-based; conditions: PC3 cell line
Method: as §1, §2, §3, §4, §5

[10] = test system: MV-4-11; test: Cell proliferation assay (Alamar Blue), MV-4-11; assay type: cell-based; conditions: Homo sapiens, MV4-11; MV-4-11 cell line
Method: as §1, §2, §3, §4, §5

T1 sequence (P68400 whole entry): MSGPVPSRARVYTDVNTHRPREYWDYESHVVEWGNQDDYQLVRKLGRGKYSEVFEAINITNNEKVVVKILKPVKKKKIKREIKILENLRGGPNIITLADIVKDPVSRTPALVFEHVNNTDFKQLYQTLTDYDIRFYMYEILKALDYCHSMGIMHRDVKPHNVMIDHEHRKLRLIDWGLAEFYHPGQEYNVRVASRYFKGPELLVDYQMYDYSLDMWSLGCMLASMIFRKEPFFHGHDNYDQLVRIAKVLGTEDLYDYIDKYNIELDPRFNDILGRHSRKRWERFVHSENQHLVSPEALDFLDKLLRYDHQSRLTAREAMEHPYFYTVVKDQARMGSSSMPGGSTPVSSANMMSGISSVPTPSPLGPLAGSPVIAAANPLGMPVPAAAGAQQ
T1 sequence (P67870 whole entry partner): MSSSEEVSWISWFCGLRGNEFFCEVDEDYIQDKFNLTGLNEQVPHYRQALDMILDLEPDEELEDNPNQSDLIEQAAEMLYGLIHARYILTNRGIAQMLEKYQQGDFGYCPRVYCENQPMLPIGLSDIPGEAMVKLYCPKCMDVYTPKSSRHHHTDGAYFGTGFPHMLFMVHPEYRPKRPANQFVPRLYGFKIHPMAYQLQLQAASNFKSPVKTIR

IC50 [1]	IC50 [2]	IC50 [3]	IC50 [4]	IC50 [5]	IC50 [6]	inhibition at 0.5 µM [7]	IC50 [8]	IC50 [9]	IC50 [10]	IC50 [7]	Structure (SMILES)
5.9 µM	1.6 µM	> 30 µM	2.8 µM	4.3 µM	> 30 µM	0%	–	–	–	–	Cn1cc(-c2nc3cc(C(=O)NC4CC4)ccc3c3cnc(NC4CC4)nc23)cn1
–	–	0.2 µM	> 10 µM	> 10 µM	–	98%	> 10 µM	> 10 µM	1.4 µM	0.029 µM	O=C(O)c1ccc2c(c1)nc(-c1cccc(F)c1)c1ccncc12
13.6 µM	3.6 µM	> 30 µM	0.9 µM	> 10 µM	> 30 µM	101%	0.6 µM	–	0.6 µM	0.004 µM	Cn1cc(-c2nc3cc(C(=O)O)ccc3c3cnc(NC4CC4)nc23)cn1
1.1 µM	0.5 µM	35.7 µM	5.2 µM	1.1 µM	25.9 µM	45%	–	–	–	–	NC(=O)c1ccc2c(c1)nc(-c1ccccc1)c1nc(NC3CC3)ncc12
> 10 µM	–	> 10 µM	> 10 µM	> 10 µM	–	98%	> 10 µM	> 10 µM	> 10 µM	0.007 µM	O=C(O)c1ccc2c(c1)nc(-c1ccc(Cl)cc1)c1ccncc12
> 62.5 µM	47.6 µM	> 62.5 µM	> 62.5 µM	> 10 µM	> 62.5 µM	68%	–	–	–	–	COC(=O)c1ccc2c(c1)nc(-c1cnn(C)c1)c1nc(SC)ncc12 [Methyl 5-(1-methyl-1H-pyrazol-4-yl)-3-(methylthio)pyrimido[4,5-c]quinoline-8-carboxylate]
1.2 µM	0.6 µM	> 62.5 µM	58.4 µM	0.8 µM	30.2 µM	-4%	–	–	–	–	O=C(NC1CC1)c1ccc2c(c1)nc(-c1ccccc1)c1nc(NC3CC3)ncc12 [N-cyclopropyl-3-(cyclopropylamino)-5-phenylpyrimido[4,5-c]quinoline-8-carboxamide]
1.9 µM	1.1 µM	3.4 µM	3.2 µM	2.6 µM	8.7 µM	-27%	–	–	–	–	COC(=O)c1ccc2c(c1)nc(-c1ccccc1)c1nc(NC3CC3)ncc12 [methyl 3-(cyclopropylamino)-5-phenylpyrimido[4,5-c]quinoline-8-carboxylate]
> 10 µM	–	> 10 µM	> 10 µM	> 30 µM	–	98%	0.2 µM	> 10 µM	13.3 µM	0.004 µM	O=C(O)c1ccc2c(c1)nc(-c1ccsc1)c1ccncc12
–	–	–	> 10 µM	> 10 µM	–	19%	> 10 µM	> 10 µM	> 10 µM	–	CN1CCN(C(=O)c2ccc3c(c2)nc(-c2cccc(N)c2)c2ccncc23)CC1
> 30 µM	> 30 µM	17.2 µM	0.6 µM	> 10 µM	1.4 µM	10%	–	–	–	–	COC(=O)c1ccc2c(c1)nc(-c1cnn(C)c1)c1nc(NC3CC3)ncc12
4.5 µM	1.5 µM	11.1 µM	3.7 µM	2.9 µM	15.9 µM	99%	–	–	–	0.093 µM	O=C(O)c1ccc2c(c1)nc(-c1ccccc1)c1nc(NC3CC3)ncc12 [3-(cyclopropylamino)-5-phenylpyrimido[4,5-c]quinoline-8-carboxylic acid]
> 10 µM	–	> 10 µM	> 10 µM	> 10 µM	–	95%	0.9 µM	> 10 µM	> 10 µM	0.03 µM	O=C(O)c1ccc2c(c1)nc(-c1cccc(Cl)c1)c1ccncc12
10.6 µM	0.7 µM	6.4 µM	5.5 µM	2.7 µM	9.8 µM	-18%	–	–	–	–	COC(=O)c1ccc2c(c1)nc(-c1ccccc1)c1nc(S(C)(=O)=O)ncc12 [methyl 3-(methylsulfonyl)-5-phenylpyrimido[4,5-c]quinoline-8-carboxylate]
–	–	–	> 30 µM	> 10 µM	–	98%	1 µM	> 10 µM	7 µM	0.033 µM	O=C(O)c1ccc2c(c1)nc(-c1ccc(F)cc1)c1ccncc12

Reference: patent US7910600B2, “Therapeutic kinase modulators” (Cylene Pharmaceuticals, Inc., priority 2007, dated 2011)
